Entries after “also recorded” stand apart in the source; their conditions may differ.

Format in all cases: in vivo
Series [1] deals with TAC mice. Kind of series: Blood pressure by tail cuff in trans-aortic constriction (TAC) mice. As to conditions: daily SQ 2 mg/kg/mouse; for diastolic blood pressure / mean arterial pressure (MAP): approximately 5-6 weeks post-surgery, 30 minutes after dosing, compared to saline treated TAC mice. The method, then: FIG. 1 is a graph showing the effects of treatment on systolic blood pressure. At approximately 5-6 weeks post-surgery, systolic blood pressure was measured 30 minutes after dosing by tail cuff.
FIG. 2 is a graph showing the effects of treatment on diastolic blood pressure. At approximately 5-6 weeks post-surgery, diastolic blood pressure was measured 30 minutes after dosing by tail cuff.
FIG. 3 is a graph showing the effects of treatment on mean arterial pressure (MAP). At approximately 5-6 weeks post-surgery, mean arterial pressure was measured 30 minutes after dosing by tail cuff.
(§1) Treatment was initiated one week after TAC surgery (daily SQ injections at a dose of 2 mg/kg/mouse) when aortic constriction was confirmed. The treatment groups (n=12 per groups) included sham surgery controls treated with saline, TAC surgery controls treated with saline, TAC surgery animals treated with A (1-7), TAC surgery animals treated with Compound 7 and TAC surgery animals treated with Compound 10. Blood pressure was measured approximately 5-6 weeks after surgery by tail cuff and unaffected by Compound 7 or Compound 10. […] Novel object recognition (NOR) is a test of non-spatial memory. […] The preference of the animal for a novel object over a familiar object exploits the natural tendency of rodents to explore novel objects, was tested 10 weeks after surgery.

For series [2], the system named is TAC mice. Kind of series: Novel object recognition (NOR) test in TAC mice. As to conditions: daily SQ 2 mg/kg/mouse, 10 weeks post-surgery, compared to saline treated TAC mice. The protocol:
FIG. 4 is a graph showing the effects of treatment on novel object recognition (NOR). At 10 weeks post-surgery, the mice underwent NOR test to assess cognitive function.
as §1

For series [3], the system named is hippocampal cytokine levels (IL-2, IL-10, IL-4, IL-5, IL-6, IL-12p70, IFNγ, KC/GRO, TNFα, IL-10). Kind of series: Hippocampal cytokine levels in TAC mice by multi-plexed immunoassay (Meso Scale Discovery). As to conditions: daily SQ 2 mg/kg/mouse, compared to saline treated TAC controls, data not shown. The protocol: as §1
Series [4] has as its system TAC mice. Kind of series: Observation of adverse events after TAC surgery combined with Mas agonist treatment. As to conditions: daily SQ 2 mg/kg/mouse. The method, then: as §1

On to `CCCCOC(=O)NS(=O)(=O)c1ccc(OC(F)(F)F)cc1-c1ccc(Cn2ccnc2)cn1` [Compound 7], for which the blood pressure entry in the series with TAC mice [1] (approximately 5-6 weeks after surgery) was “unaffected”. In the series with TAC mice [1], the diastolic blood pressure entry is listed as “no significant effect” and the “mean arterial pressure (MAP)” value is recorded as “no significant effect”. The “novel object recognition (NOR) memory / cognitive function” value with TAC mice [2] was “restored NOR memory to sham levels; also recorded: significantly increased cognition”. For the same compound, in series [3], the “hippocampal levels of all cytokines tested (IL-2, IL-10, IL-4, IL-5, IL-6, IL-12p70, IFNγ, KC/GRO, TNFα, IL-10)” value is given as “decreased”. The observable adverse events entry with TAC mice [4] is on record as “no observable adverse events”.
Consider “A (1-7): comparator treatment in TAC mice, printed only as A (1-7) (DRVYIHP; Angiotensin 1-7; UniProt P01019 25-31, looked up) [reference compound]”, for which, in the series on TAC mice [1], the diastolic blood pressure entry is reported as “significantly reduced” and the “mean arterial pressure (MAP)” value was “significantly reduced”.

The record behind these values is patent US11833148B2, “Methods for treating or limiting development of cardiovascular disease-related neurological disorders” (ARIZONA BOARD OF REGENTS ON BEHALF OF THE UNIVERSITY OF …, priority 2018, dated 2023).
